Values of other authors, collected in patent EP0156318A2, “C-terminal amide cyclic renin inhibitors containing peptide isosteres” (Merck & Co., Inc., priority 1984, dated 1985).
Square brackets hold non-standard residues; d marks the D form. Peptide text beside a SMILES is read from it. * marks the point of attachment. Sta = CC(C)C[C@H](N)[C@@H](O)CC(=O)O; Isovaleryl = CC(C)CC(=O)*

Tested on: hog renin
Details: after the injection of hog renin into nephrectomized rats

CC(C)CC(=O)N[C@H](C(=O)N[C@H](C(=O)N[C@@H](CC(C)C)[C@@H](O)CC(=O)N[C@@H](C)C(=O)N[C@@H](CC(C)C)[C@@H](O)CC(=O)O)C(C)C)C(C)C [pepstatin] (Isovaleryl-VV[Sta]A[Sta]-OH)
blood pressure in vivo: reduce blood pressure
